Test results reported in ChEMBL document CHEMBL5385848, “Discovery of novel hydroxyamidine based indoleamine 2,3-dioxygenase 1 (IDO1) and thioredoxin reductase 1 (TrxR1) dual inhibitors” (Eur J Med Chem, 2023).
The source made the active and inactive calls. The rule behind the calls is not given here.

How the values were obtained:
HCT-116 [1] = test: Induction of cell cycle arrest in human HCT-116 cells assessed as G1/S phase arrest at 2.5 to 10 uM incubated for 24 hrs by PI staining based flow cytometry analysis; assay type: functional; settings: dose 2.5-10 µM
HCT-116 [2] = test: Induction of apoptosis in human HCT-116 cells assessed as caspase-3 activation incubated for 24 hrs; assay type: functional, cell-based; settings: dose 2.5-10 µM
HCT-116 [3] = test: Induction of apoptosis in human HCT-116 cells assessed as apoptotic rate at 10 uM pretreated with NAC incubated for 24 hrs by Annexin-V/PI staining based flow cytometry analysis (reference value: 9.8 +/- 1.59%); assay type: functional
HCT-116 [4] = test: Induction of apoptosis in human HCT-116 cells assessed as apoptotic rate at 5 uM pretreated with NAC incubated for 24 hrs by Annexin-V/PI staining based flow cytometry analysis (reference value: 9.8 +/- 1.59%); assay type: functional
HCT-116 [5] = test: Induction of apoptosis in human HCT-116 cells assessed as apoptotic rate at 2.5 uM pretreated with NAC incubated for 24 hrs by Annexin-V/PI staining based flow cytometry analysis (reference value: 9.8 +/- 1.59%); assay type: functional
HCT-116 [6] = test: Induction of apoptosis in human HCT-116 cells assessed as apoptotic rate at 5 uM incubated for 24 hrs by Annexin-V/PI staining based flow cytometry analysis; assay type: functional
HeLa [7] = test: Induction of ROS generation in human HeLa cells at 10 uM incubated for 4 hrs by DCFH-DA staining based flow cytometry analysis; assay type: functional, cell-based
[8] = biological target: T1, Thioredoxin reductase 1, cytoplasmic (Homo sapiens, UniProt Q16881); test: Inhibition of TrxR1 in human HCT-116 cells incubated for 24 hrs; assay type: cell-based
T1 sequence (Q16881 whole entry): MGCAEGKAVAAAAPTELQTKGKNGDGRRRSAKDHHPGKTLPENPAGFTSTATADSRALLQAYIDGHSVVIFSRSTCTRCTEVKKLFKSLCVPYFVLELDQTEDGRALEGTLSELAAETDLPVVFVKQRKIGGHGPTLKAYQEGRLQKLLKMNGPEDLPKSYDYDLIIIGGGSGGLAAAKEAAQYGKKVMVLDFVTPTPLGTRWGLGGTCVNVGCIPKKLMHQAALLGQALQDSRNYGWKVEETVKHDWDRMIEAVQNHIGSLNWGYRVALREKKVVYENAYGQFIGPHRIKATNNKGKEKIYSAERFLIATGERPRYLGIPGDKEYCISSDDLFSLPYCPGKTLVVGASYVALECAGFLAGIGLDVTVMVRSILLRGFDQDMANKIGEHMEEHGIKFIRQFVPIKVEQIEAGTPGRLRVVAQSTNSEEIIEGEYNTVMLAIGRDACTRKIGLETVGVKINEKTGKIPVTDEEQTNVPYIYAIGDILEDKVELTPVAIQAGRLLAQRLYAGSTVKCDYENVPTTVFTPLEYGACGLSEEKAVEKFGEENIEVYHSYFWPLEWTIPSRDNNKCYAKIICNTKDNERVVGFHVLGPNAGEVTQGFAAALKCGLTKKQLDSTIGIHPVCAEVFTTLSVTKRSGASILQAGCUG

[9] = biological target: T2, Thioredoxin reductase 1, cytoplasmic (Mus musculus, UniProt Q9JMH6); test: Inhibition of TrxR1 in mouse CT26 cells incubated for 24 hrs; assay type: cell-based
T2 sequence (Q9JMH6 whole entry): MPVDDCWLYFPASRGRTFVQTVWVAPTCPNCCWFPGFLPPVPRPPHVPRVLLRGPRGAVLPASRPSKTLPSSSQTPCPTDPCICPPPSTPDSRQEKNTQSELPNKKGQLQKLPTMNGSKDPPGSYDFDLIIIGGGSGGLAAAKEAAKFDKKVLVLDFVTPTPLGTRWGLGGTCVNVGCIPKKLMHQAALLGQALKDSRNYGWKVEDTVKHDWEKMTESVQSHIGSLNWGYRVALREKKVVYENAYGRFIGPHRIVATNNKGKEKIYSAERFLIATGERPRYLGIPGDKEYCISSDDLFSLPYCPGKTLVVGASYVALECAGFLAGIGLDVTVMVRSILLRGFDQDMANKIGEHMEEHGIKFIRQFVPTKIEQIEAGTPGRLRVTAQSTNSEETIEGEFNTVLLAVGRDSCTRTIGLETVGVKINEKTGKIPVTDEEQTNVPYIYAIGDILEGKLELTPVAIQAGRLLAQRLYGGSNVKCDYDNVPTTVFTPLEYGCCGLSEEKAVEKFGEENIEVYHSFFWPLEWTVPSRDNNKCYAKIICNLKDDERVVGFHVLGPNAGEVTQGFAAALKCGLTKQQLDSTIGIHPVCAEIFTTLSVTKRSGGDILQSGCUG

HCT-116 [10] = test: Induction of cell cycle arrest in human HCT-116 cells assessed as G1/S phase arrest at 2.5 to 10 uM pretreated with NAC for 2 hrs followed by compound addition and measured after 12 hrs by PI staining based flow cytometry analysis; assay type: functional; settings: dose 2.5-10 µM
HeLa [11] = test: Induction of cell cycle arrest in human HeLa cells assessed as G1/S phase arrest at 2.5 to 10 uM incubated for 24 hrs by PI staining based flow cytometry analysis; assay type: functional; settings: dose 2.5-10 µM
HCT-116 [12] = test: Cytotoxicity against human HCT-116 cells transfected with TrxR1 siRNA incubated for 24 hrs by CCK-8 assay (reference value: 3.49 +/- 0.28 uM); assay type: functional, cell-based; settings: HCT-116, 24 h
HCT-116 [13] = test: Cytotoxicity against human HCT-116 cells transfected with IDO1 siRNA incubated for 24 hrs by CCK-8 assay (reference value: 3.49 +/- 0.28 uM); assay type: functional, cell-based; settings: HCT-116, 24 h
[14] = biological target: Indoleamine 2,3-dioxygenase 1 (Mus musculus) (UniProt P28776); test: In vivo inhibition of IDO1 in BALB/c mouse implanted with mouse CT-26 cells assessed as reduction in plasma Kyn/Trp ratio at 60 mg/kg, po administered once daily by LC-MS/MS analysis; assay type: functional, organism-based
[15] = biological target: Indoleamine 2,3-dioxygenase 1 (Mus musculus) (UniProt P28776); test: In vivo inhibition of IDO1 in BALB/c mouse implanted with mouse CT-26 cells assessed as reduction in tumor Kyn level at 60 mg/kg, po administered once daily by LC-MS/MS analysis; assay type: functional, organism-based
CT26 [16] = test: Antitumor activity against ig dosed mouse CT26 cells implanted in […] BALB/c mouse assessed as reduction in tumor weight administered daily for 28 days and measured every 4 days; assay type: functional, organism-based; settings: dose 15-60 mg/kg, time 28.0 day
[17] = Toxicity in athymic nude BALB/c mouse assessed as weight gain at 15 to 60 mg/kg, ig administered daily for 28 days and measured every 4 days; assay type: organism-based; settings: in vivo, po, 672 h, dose 15-60 mg/kg, time 28 day
CT26 [18] = test: Antitumor activity against mouse CT26 cells implanted in […] BALB/c mouse assessed as increase in CD4 Th lymphocytes at 15 to 60 mg/kg, ig administered daily for 28 days and measured every 4 days; assay type: functional, organism-based; settings: dose 15-60 mg/kg, time 28.0 day
HCT-116 [19] = test: Antitumor activity against human HCT-116 cells xenografted in ig dosed athymic nude BALB/c mouse assessed as tumor growth inhibition administered daily for 28 days and measured every 4 days; assay type: functional, organism-based; settings: dose 15-60 mg/kg, time 28.0 day
HCT-116 [20] = test: Antitumor activity against human HCT-116 cells xenografted in athymic nude BALB/c mouse assessed as increase in necrosis of tumor cells at 15 to 60 mg/kg, ig administered daily for 28 days and measured every 4 days; assay type: functional, organism-based; settings: dose 15-60 mg/kg, time 28.0 day

Indoleamine 2,3-dioxygenase 1 (Mus musculus), sequence (P28776 whole entry, looked up): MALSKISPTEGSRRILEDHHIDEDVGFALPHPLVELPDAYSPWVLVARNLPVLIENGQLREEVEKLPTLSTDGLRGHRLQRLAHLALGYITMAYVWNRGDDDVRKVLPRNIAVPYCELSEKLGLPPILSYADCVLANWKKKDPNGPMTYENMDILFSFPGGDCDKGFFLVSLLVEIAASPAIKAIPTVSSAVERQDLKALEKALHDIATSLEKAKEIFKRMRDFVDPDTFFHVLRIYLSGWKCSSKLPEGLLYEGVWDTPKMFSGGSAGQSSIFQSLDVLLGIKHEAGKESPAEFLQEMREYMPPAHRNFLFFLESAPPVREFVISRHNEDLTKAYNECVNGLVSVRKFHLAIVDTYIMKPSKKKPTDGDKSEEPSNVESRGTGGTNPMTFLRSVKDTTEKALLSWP

In the case of `O=C(Cc1ccc(O)cc1)Nc1nnc(CCCNc2nonc2/C(=N\O)Nc2ccc(F)c(Br)c2)s1`, the Activity (HCT-116 [1]) is reported as “Active”, the Activity (HCT-116 [2]) is reported as “Dose-Dependent Effect” and the Activity (HCT-116 [3]) is reported as 15.21%. It also gave an Activity (HCT-116 [4]) of 11.98%, an Activity (HCT-116 [5]) of 10.37% and an Activity (HCT-116 [6]) of 30.64%. The Activity (HeLa [7]) was “Active”, the EC50 [8] was 3.14 µM and the EC50 [9] was 25.7 µM. The Activity (HCT-116 [10]) was “inactive”, the Activity (HeLa [11]) was “Active” and the IC50 (HCT-116 [12]) was 1.67 µM. For the same molecule, the IC50 (HCT-116 [13]) was 3.79 µM, the Activity [14] was “Active” and the Activity [15] was “Active”. For the same molecule, the Activity (CT26 [16]) was “Dose-Dependent Effect”, the Activity [17] was “Toxic” and the Activity (CT26 [18]) was “Active”. For the same molecule, the Activity (HCT-116 [19]) was “Active” and the Activity (HCT-116 [20]) was “Active”.
